# Data from publication PMC2572998, “Structures of the Signal Recognition Particle Receptor from the Archaeon Pyrococcus furiosus: Implications for the Targeting Step at the Membrane” (PLoS ONE, 2008).
# Biological target: T1, Pfu-FtsY (Pyrococcus furiosus, UniProt Q8U051)
# T1 construct: full-length; N-terminal hexahistidine tag (pET28b, thrombin-cleavable) removed; expressed in E. coli BL21(DE3)-rosetta2; calculated mass 35,810 Da; monomer
# T1 sequence (Q8U051 1-322): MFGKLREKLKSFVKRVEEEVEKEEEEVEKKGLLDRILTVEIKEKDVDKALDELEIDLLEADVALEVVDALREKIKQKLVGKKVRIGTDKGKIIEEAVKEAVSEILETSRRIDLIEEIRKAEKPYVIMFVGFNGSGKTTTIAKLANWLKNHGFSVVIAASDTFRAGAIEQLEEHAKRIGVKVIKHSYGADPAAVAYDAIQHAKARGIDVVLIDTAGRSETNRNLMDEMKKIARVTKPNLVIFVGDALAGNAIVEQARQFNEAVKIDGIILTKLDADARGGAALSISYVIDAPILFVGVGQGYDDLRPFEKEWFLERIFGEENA
# Experiment: X-ray crystal structure, […] Å
# Type: binding
# Conditions: Mg2+; co-crystallised with 10 mM GTP (hydrolysed to GDP), pH 8.0; catalytic site at full occupancy; additional external GDP at crystal contact near insertion box domain (second site, 69% occupancy)
smiles,measurement,value
Nc1nc2c(ncn2[C@@H]2O[C@H](COP(=O)(O)OP(=O)(O)O)[C@@H](O)[C@H]2O)c(=O)[nH]1 [GDP],"X-ray crystal structure, 2.0 Å",the crystal structure we obtained showed the presence of GDP•magnesium bound in the catalytic site
